{"source": "paper PMC9967789", "about": "“Green Drug Discovery: Novel Fragment Space from the Biomass-Derived Molecule Dihydrolevoglucosenone (Cyrene^TM)” (Molecules, 2023)", "key": {"[1]": {"assay": "Nephelometry solubility in HBSS buffer containing 1% DMSO", "type": "physicochemical", "conditions": "for concentration up to which no signs of precipitation or aggregation are shown: in triplo", "protocol": "Nephelometry was performed using NEPHELOstar Plus equipment (BMG LABTECH, Ortenberg, Germany). Kaolin was used as the internal standard, and compounds were added to HBSS buffer as DMSO stock solution to a final concentration of 1% DMSO and a total volume of 200 μL. Precipitation or aggregation was considered significant when average values exceeded three times the standard deviation of the blanks. Blank values were omitted if they exceeded three times the standard deviation of the 24 blanks that were measured on each 96-well plate. All compounds were tested in triplo, and wells of suspected outliers were visually inspected before omitting any outliers. Data were processed in Prism version 8.0 (GraphPad, San Diego, CA, USA)."}, "[2]": {"assay": "Incubation experiment: fragment integrity by 1H NMR in DMSO-d6", "type": "physicochemical", "conditions": "10^−2 M in DMSO-d6, NMR, three weeks at room temperature or frozen", "protocol": "(§1) LCMS studies: A 10 mM solution in DMSO was diluted with HBSS buffer to 0.10 mM. Fragment integrity was measured by LCMS at regular intervals (not shown) up to 20 d in the dark at rt, or after 20 d of freezing. NMR studies: A 10 mM solution in DMSO-d6 was prepared. Fragment integrity was measured with ^1H NMR analysis at regular intervals (not shown) up to 20 d in the dark at rt, or after 20 d of freezing."}, "[3]": {"assay": "Incubation experiment: fragment integrity by LCMS in HBSS buffer/1% DMSO", "type": "physicochemical", "conditions": "10^−4 M in HBSS buffer/1% DMSO", "protocol": "as §1"}, "[4]": {"conditions": "cited from earlier work"}, "[5]": {"design": "method as in doi:10.1021/acssuschemeng.6b02115", "conditions": "cited from earlier work"}}}
{"smiles": "Cc1ccc(COC2CC[C@H]3CO[C@@H]2O3)cc1", "note": "(some centres unmarked) [Compound 5c]", "values": [{"measurement": "concentration up to which no signs of precipitation or aggregation are shown", "setting": "[1]", "value": 1000, "unit": "µM"}]}
{"smiles": "O=C(Nc1ccc(Cl)cc1)OC1CC[C@H]2CO[C@@H]1O2", "note": "(some centres unmarked) [Compound 7c]", "values": [{"measurement": "concentration at which the precipitate/aggregate starts to form", "setting": "[1]", "value": "10^−3 M"}, {"measurement": "concentration up to which no signs of precipitation or aggregation are shown", "setting": "[1]", "value": 320, "unit": "µM"}]}
{"smiles": "Cn1ccc(CNC2CC[C@H]3CO[C@@H]2O3)n1.O=C(O)CCC(=O)O", "note": "(some centres unmarked) [Compound 8f]", "values": [{"measurement": "concentration up to which no signs of precipitation or aggregation are shown", "setting": "[1]", "value": 3200, "unit": "µM"}]}
{"smiles": "Clc1cccc(Cl)c1CNC1CC[C@H]2CO[C@@H]1O2", "note": "(some centres unmarked) [Compound 8h]", "values": [{"measurement": "decomposition in DMSO", "setting": "[2]", "value": "no significant decomposition"}, {"measurement": "byproduct formed", "setting": "[3]; three weeks at room temperature", "value": "ca. 2.5%"}]}
{"smiles": "COc1ccc(C(=O)NC2CC[C@H]3CO[C@@H]2O3)cc1", "note": "(some centres unmarked) [Compound 9h]", "values": [{"measurement": "decomposition in DMSO", "setting": "[2]", "value": "no significant decomposition"}, {"measurement": "reactivity on incubation in buffer", "setting": "[3]; three weeks at room temperature or frozen", "value": "no or only minor reactivity"}]}
{"smiles": "O=C(NC1CC[C@H]2CO[C@@H]1O2)c1cccs1", "note": "(some centres unmarked) [Compound 9p]", "values": [{"measurement": "concentration up to which no signs of precipitation or aggregation are shown", "setting": "[1]", "value": 1000, "unit": "µM"}]}
{"smiles": "O=S(=O)(NC1CC[C@H]2CO[C@@H]1O2)C1CC1", "note": "(some centres unmarked) [Compound 12f]", "values": [{"measurement": "concentration up to which no signs of precipitation or aggregation are shown", "setting": "[1]", "value": 320, "unit": "µM"}]}
{"smiles": "O=C1CC[C@H]2CO[C@@H]1O2", "note": "[Cyrene, dihydrolevoglucosenone]", "values": [{"measurement": "water solubility", "setting": "[4]", "value": "highly water-soluble"}, {"measurement": "toxicity", "setting": "[5]", "value": "low toxicity"}]}
{"smiles": "C1COC2(CCC3COC2O3)O1", "note": "(centres unmarked) [glycol acetal of Cyrene]", "values": [{"measurement": "miscibility with water", "setting": "[4]", "value": "water-miscible"}]}
{"smiles": "O=C1CC2COC(C1)O2", "note": "(centres unmarked) [iso-Cyrene]", "values": [{"measurement": "concentration of solutions obtained in water", "setting": "[4]; water", "value": 10000, "unit": "µM"}]}
